“Also recorded” adds a separate entry of the source.
What was measured:
Assay type in all cases: in vivo, human
[1] = system: ctDNA (ESR1, PIK3CA and AKT1 mutations); test: ctDNA mutant allele frequency monitoring (BEAMing, ddPCR) in plasma
Excerpt: Fresh plasma samples were collected at baseline (predose), cycle 1 day 15 (CID15), C2D1, C3D1 and every 8 weeks thereafter with a final sample collection at disease progression. At baseline, BEAMing digital PCR was used to evaluate hotspot mutations in ESR1, PIK3CA and AKT1. Patient specific ctDNA mutations were subsequently monitored by ddPCR. Baseline tumor biopsies were subjected to a targeted Next Generation Sequencing (NGS) panel to identify hotspot mutations.
• H3B-6545 administered once daily orally (PO QD) over a 28-day cycle • Dose escalation using a standard 3+3 study design using dose cohorts of 100, 200, 300, 450, and 600 mg/day
Liquid biopsy assays: 10 ml of Strek plasma was collected at the site and then processed into plasma at Sysmex Inostics. cfDNA was isolated from 2 ml of plasma for BEAMing and 3 ml for Biorad ddPCR

[2] = Plasma PK of H3B-6545 capsules in fasted patients, phase 1 dose escalation; details: 100 to 450 mg; as of 10 Dec. 2018
[3] = system: locally advanced or metastatic ER+HER2−BC; test: Tumor response and progression-free survival, phase 1 dose escalation; details: as of 10 Dec. 2018; 32 patients, 100 to 450 mg/day
[4] = Safety: treatment-related adverse events and dose-limiting toxicities, phase 1 dose escalation
Excerpt: Example 3 reports Clinical and Genomics Analysis of a single trial. The Study Population in Example 3 was as follows: • Women ≥18 years old with locally advanced or metastatic ER+HER2−BC. • Progression on at least one hormonal therapy and at least one additional therapy/regimen; no maximum number of prior lines of therapy. • ECOG performance status of 0 or 1. • Adequate bone marrow and organ function. • Excluded if had bone-only disease or inflammatory BC.
Methods were used to analyze whether H3B-6545 inactivates both wild-type and mutant ERα by targeting cysteine 530 and enforcing a unique antagonist conformation. Methods: Women with locally advanced or metastatic HR+BC are treated (tx) with H3B-6545 drug product administered once daily orally by capsule over a 28 day cycle after progression on at least one hormonal therapy and at least one additional therapy/regimen. Dose escalation uses a 3+3 design with the option to backfill previously cleared doses and allows for intrapatient dose escalation. This example explored the safety, pharmacokinetics and pharmacodynamics of H3B-6545 in women with HR+BC to identify a recommended subsequent dose for testing.
• H3B-6545 administered once daily orally over a 28 day cycle. • Dose escalation using a standard 3+3 study design using dose cohorts of 100, 200, 300, 450, and 600 mg QD. • Patients allowed to backfill previously cleared doses. • Intra-patient dose escalation allowed after completion of Cycle 3. […]

[5] = 100 mg QD (N = 6), as of Apr. 20, 2019
[6] = 200 mg QD (N = 12), as of Apr. 20, 2019
[7] = 300 mg QD (N = 11), as of Apr. 20, 2019
[8] = 450 mg QD (N = 10), as of Apr. 20, 2019
[9] = 600 mg QD (N = 7), as of Apr. 20, 2019
[10] = Total (N = 46), 100 to 600 mg QD, as of Apr. 20, 2019
[11] = as of Apr. 20, 2019, 100 to 600 mg QD

Compound: CN(C)C(=O)/C=C/CNCCOc1ccc(/C(=C(/CC(F)(F)F)c2ccccc2)c2ccc3[nH]nc(F)c3c2)cn1 [H3B-6545, (E)-N,N-dimethyl-4-[2-[5-[(Z)-4,4,4-trifluoro-1-(3-fluoro-1H-indazol-5-yl)-2-phenylbut-1-enyl]pyridin-2-yl]oxyethylamino]but-2-enamide]
- changes in mutant allele frequencies versus response ([1]; plasma): show correlation in response to treatment; also recorded: show correlation to clinical response
- ctDNA levels by C2D1 in patients with confirmed partial response ([1]; serial ctDNA monitoring): undetectable
- patients with confirmed partial responses whose ctDNA levels were undetectable by C2D1 ([1]; serial ctDNA monitoring): 3/3
- patients with progressive disease whose ctDNA levels increased from baseline ([1]; serial ctDNA monitoring): 3/4
- plasma concentration versus dose [2]: increased with dose
- Partial responses (PRs), patients [3]: 3 patients
- Stable disease, % of patients [3]: 47%
- patients who completed at least 6 months of treatment [3]: 34%
- Subjects with any TRAE [4, 5]: 4
- TRAE Anaemia, subjects [4, 5]: 0
- TRAE Aspartate aminotransferase increased, subjects [4, 5]: 0
- TRAE Diarrhoea, subjects [4, 5]: 1
- TRAE Fatigue, subjects [4, 5]: 1
- TRAE Nausea, subjects [4, 5]: 1
- TRAE Sinus bradycardia, subjects [4, 5]: 0
- Subjects with any TRAE [4, 6]: 6
- TRAE Anaemia, subjects [4, 6]: 1
- TRAE Aspartate aminotransferase increased, subjects [4, 6]: 1
- TRAE Diarrhoea, subjects [4, 6]: 1
- TRAE Fatigue, subjects [4, 6]: 2
- TRAE Nausea, subjects [4, 6]: 0
- TRAE Sinus bradycardia, subjects [4, 6]: 2
- Subjects with any TRAE [4, 7]: 9
- TRAE Anaemia, subjects [4, 7]: 2
- TRAE Aspartate aminotransferase increased, subjects [4, 7]: 1
- TRAE Diarrhoea, subjects [4, 7]: 2
- TRAE Fatigue, subjects [4, 7]: 3
- TRAE Nausea, subjects [4, 7]: 3
- TRAE Sinus bradycardia, subjects [4, 7]: 7
- Subjects with any TRAE [4, 8]: 9
- TRAE Anaemia, subjects [4, 8]: 3
- TRAE Aspartate aminotransferase increased, subjects [4, 8]: 1
- TRAE Diarrhoea, subjects [4, 8]: 3
- TRAE Fatigue, subjects [4, 8]: 1
- TRAE Nausea, subjects [4, 8]: 4
- TRAE Sinus bradycardia, subjects [4, 8]: 3
- Subjects with any TRAE [4, 9]: 5
- TRAE Anaemia, subjects [4, 9]: 1
- TRAE Aspartate aminotransferase increased, subjects [4, 9]: 2
- TRAE Diarrhoea, subjects [4, 9]: 0
- TRAE Fatigue, subjects [4, 9]: 1
- TRAE Nausea, subjects [4, 9]: 1
- TRAE Sinus bradycardia, subjects [4, 9]: 0
- dose-limiting toxicity (DLT)s, number ([4]; 600 mg QD cohort, Grade 3 fatigue and Grade 3 rash morbilliform, as of Apr. 20, 2019): Two
- sinus bradycardia, dose or concentration dependence ([4]; 46 patients, 100 to 600 mg QD): does not appear to be dose- or concentration-dependent
- TRAEs ≥Grade 4 ([4]; 46 patients, 100 to 600 mg QD, as of Apr. 20, 2019): no TRAEs ≥Grade 4
- Grade 3 TRAEs, number ([4]; 46 patients, 100 to 600 mg QD, two at 450 mg, four at 600 mg, as of Apr. 20, 2019): Six
- Subjects with any TRAE [4, 10]: 33
- TRAE Anaemia, subjects [4, 10]: 7
- TRAE Aspartate aminotransferase increased, subjects [4, 10]: 5
- TRAE Diarrhoea, subjects [4, 10]: 7
- TRAE Fatigue, subjects [4, 10]: 8
- TRAE Nausea, subjects [4, 10]: 9
- TRAE Sinus bradycardia, subjects [4, 10]: 12
- dose-limiting toxicities ([4]; as of 10 Dec. 2018, 32 patients, 100 to 450 mg/day): No dose-limiting toxicities
- Grade 3 treatment related adverse events (TRAE), number ([4]; as of 10 Dec. 2018, 32 patients, 100 to 450 mg/day, lymphocyte count decrease): one
- tolerability ([4]; as of 10 Dec. 2018, H3B-6545 drug product): well-tolerated up to the 450 mg dose level
- grade of TRAEs [4, 11]: Most TRAEs were grade 1 or 2 and manageable
- tolerated dose [4, 11]: tolerated up to and including 450 mg QD

Reference: patent publication US12702660B2, “Method for treating cancer with an oral dosage form of an estrogen receptor-alpha inhibitor” (Eisai R&D Management Co., Ltd., priority 2019, dated 2026)
